Laboratory results from PMC11912484 (Journal of Medicinal Chemistry, 2025).
≈ marks a conversion by molar mass, not a printed value. Entries after “also recorded” stand apart in the source; their conditions may differ. Read-outs that look alike come from different tables or passages of the source.

Experiments:
[1] = molecular target: T1, MbtI (Mycobacterium tuberculosis, UniProt P9WFX1); assay: MbtI fluorimetric enzyme inhibition assay; format: biochemical; conditions: for remaining activity at 100 µM / % RA (percentage of residual enzymatic activity): 100 μM test compound, 50 μM chorismic acid; for remaining activity at 100 µM: read-out: % RA (percentage of residual enzymatic activity); for IC50: recombinant MbtI
T1 construct: made in house
T1 sequence (P9WFX1 whole entry): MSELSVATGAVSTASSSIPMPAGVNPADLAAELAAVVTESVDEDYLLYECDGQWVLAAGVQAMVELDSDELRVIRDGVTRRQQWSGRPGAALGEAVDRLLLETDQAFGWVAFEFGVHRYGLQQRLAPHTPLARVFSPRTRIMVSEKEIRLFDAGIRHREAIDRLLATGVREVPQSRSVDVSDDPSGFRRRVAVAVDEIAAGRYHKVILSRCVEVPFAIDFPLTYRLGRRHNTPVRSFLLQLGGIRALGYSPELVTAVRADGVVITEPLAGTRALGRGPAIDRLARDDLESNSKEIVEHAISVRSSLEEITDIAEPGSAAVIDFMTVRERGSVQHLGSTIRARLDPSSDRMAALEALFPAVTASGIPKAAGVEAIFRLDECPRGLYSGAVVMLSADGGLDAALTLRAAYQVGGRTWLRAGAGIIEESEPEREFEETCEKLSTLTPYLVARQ
Protocol: MbtI from Mtb was produced in recombinant form, and enzyme activity was determined using a fluorimetric assay, as previously reported.[38] For the inhibition studies, the activity was determined in the presence of 100 μM of the test compound and 50 μM of chorismic acid. For compounds that inhibited more than 80% of the initial activity, IC50 values were calculated using eq 1 and GraphPad Prism 8.0 software [drawing 1] 1 where A[I] is the activity at inhibitor concentration [I] and A[0] is the activity in the absence of the inhibitor.

[2] = tested on: M. bovis BCG; assay: microbe, parasite or virus in culture; format: cell-based; conditions: for MIC99: Mycobacterium tuberculosis variant bovis BCG, BCG; for antimycobacterial effect (in words): M. bovis BCG, REMA
[3] = molecular target: T1, MbtI; conditions: compound II; cited from earlier work
[4] = tested on: M. bovis BCG; conditions: cited from earlier work
[5] = tested on: Mtb H37Rv; parameters: method as in PMID 32530281; conditions: compound I; cited from earlier work
[6] = tested on: human cell lines; parameters: method as in PMID 30889995, PMID 36015139; conditions: several human cell lines; cited from earlier work
[7] = tested on: siderophore production; format: cell-based; conditions: M. bovis BCG grown with different concentrations of compound
[8] = tested on: M. bovis BCG; format: cell-based; conditions: 1 × MIC and 10 × MIC, low-iron chelated Sauton's medium
[9] = tested on: mycobacterial efflux pumps; format: cell-based, M. bovis BCG; conditions: MIC99 with reserpine 32 μg/mL or verapamil 125 μg/mL (1/2 MIC)
[10] = tested on: Mtb-infected murine alveolar-like macrophages (mAMs); format: cell-based, Mycobacterium tuberculosis
[11] = Polymersome size by DLS; format: physicochemical; conditions: three independent batches
Protocol: The purified solutions were then analyzed by Transmission Electron Microscopy (TEM) on a Jeol JEM 1010 100 kV microscope, equipped with a Megaview 1kx1k CCD (Jeol Ltd., Tokyo, Japan). Copper grids were glow-discharged, and the sample was adsorbed onto the grid. The sample was stained with 1 wt % phosphotungstic acid (PTA) adjusted to pH 7.4 with NaOH. All the TEM analyses were performed with dried samples. The nanoparticle size distribution was characterized by DLS analyses (DLS PN3704 Zetasizer, Malvern Panalytical) using a copolymer concentration of 0.20 mg/mL. For each analysis, 3 measurements were carried out, based on 11 runs. Samples were analyzed at 25 °C with a scattering angle of 173° and a 633 nm HeNe laser, based on a material refractive index (RI) of 1.59, a dispersant refractive index of 1.330, and a viscosity of 0.89. Drug encapsulation was measured by RP-HPLC (Dionex UltiMate 3000, ThermoFisher Scientific). A gradient of water + TFA 0.05% (A) and MeOH + TFA 0.05% (B) from 0 min (30% B) to 30 min (100% B) was used to run the samples through a Jupiter 5 μm C18 300 Å, 150 × 4.6 mm column (Phenomenex, Torrance, CA). The peak area was integrated by using Chromeleon version 6.8 (ThermoFisher Scientific).

[12] = tested on: mouse alveolar-like macrophages (MPI-2 cell line); assay: MTT viability assay on mAMs; format: cell-based; conditions: 24 h exposure, 200, 100, 50 and 25 μM
Protocol: Cell viability was evaluated on human monocytes (THP-1 cell line), human lung fibroblasts (HLF cell line), and mouse alveolar-like macrophages (MPI-2 cell line) using the thiazolyl blue tetrazolium bromide method (MTT; chemicals acquired from Sigma-Aldrich, Merck KGaA).

CCCOc1cc(C#N)cc(-c2ccc(C(=O)O)o2)c1 [Compound 1c, 5-(3-Cyano-5-propoxyphenyl)furan-2-carboxylic Acid]
remaining activity at 100 µM [1]: 2.5 ± 0.4% | IC50 [1]: 18.5 ± 0.9 µM | MIC99 [2]: 250 µM (≈ 67.8 µg/mL)

CC(C)(C)COc1cc(C#N)cc(-c2ccc(C(=O)O)o2)c1 [Compound 1h, 5-(3-Cyano-5-(neopentyloxy)phenyl)furan-2-carboxylic Acid]
remaining activity at 100 µM [1]: 6.8 ± 3.1% | IC50 [1]: 18.6 ± 1.5 µM | MIC99 [2]: 125 µM (≈ 37.4 µg/mL)

CC(C)CCOc1cc(C#N)cc(-c2ccc(C(=O)O)o2)c1 [Compound 1j, 5-(3-Cyano-5-(isopentyloxy)phenyl)furan-2-carboxylic Acid]
remaining activity at 100 µM [1]: 1.6 ± 1.4% | IC50 [1]: 22 ± 1.8 µM | MIC99 [2]: 125 µM (≈ 37.4 µg/mL)

N#Cc1cc(OCCOc2ccccc2)cc(-c2ccc(C(=O)O)o2)c1 [II]
IC50 [3]: 12.1 µM | MIC99 ([4]; compound II): 63 µM (≈ 22 µg/mL)

N#Cc1cccc(-c2ccc(C(=O)O)o2)c1 [I]
MIC99 ([4]; compound I, M. bovis BCG): 250 µM (≈ 53.3 µg/mL) | MIC99 [5]: 250 µM (≈ 53.3 µg/mL) | safety on human cell lines [6]: safe on several human cell lines

CC(C)Oc1cc(C#N)cc(-c2ccc(C(=O)O)o2)c1 [Compound 1b, 5-(3-Cyano-5-isopropoxyphenyl)furan-2-carboxylic Acid]
remaining activity at 100 µM [1]: 12.1 ± 2.9% | IC50 [1]: 21.1 ± 0.6 µM | MIC99 [2]: > 500 µM

C/C=C/C=C/C=C/COc1cc(C#N)cc(-c2ccc(C(=O)O)o2)c1 [Compound 1o, 5-(3-Cyano-5-((2E,4E,6E)-octa-2,4,6-trien-1-yloxy)phenyl)furan-2-carboxylic Acid]
remaining activity at 100 µM [1]: 18.4 ± 3.8% | IC50 [1]: 9.2 ± 2.4 µM | antimycobacterial effect (in words) [2]: completely abolished the antimycobacterial effect | MIC99 [2]: > 500 µM

CC(C)COc1cc(C#N)cc(-c2ccc(C(=O)O)o2)c1 [Compound 1e, 5-(3-Cyano-5-isobutoxyphenyl)furan-2-carboxylic Acid]
remaining activity at 100 µM [1]: 7 ± 3.1% | IC50 [1]: 11.2 ± 1.5 µM | MIC99 [2]: 32 µM (≈ 9.13 µg/mL) | siderophore production (CAS assay) [7]: acted by impairing the production of siderophores | time-killing behaviour [8]: bacteriostatic activity | substrate of mycobacterial efflux pumps [9]: not substrates of efflux pumps | reduction in Mtb intracellular burden by the free compound [10]: did not exhibit significant activity on infected macrophages; also recorded: detected only at the highest tested concentration (200 μM)

CCCOC(=O)c1ccc(-c2cc(C#N)cc(OCC(C)C)c2)o1 [Compound 2eb, Propyl 5-(3-Cyano-5-isobutoxyphenyl)furan-2-carboxylate]
remaining activity at 100 µM [1]: 94 ± 9.3% | MIC99 [2]: 125 µM (≈ 40.9 µg/mL) | average size (hydrodynamic diameter) of drug-containing POs [11]: 45.68 ± 1.86 nm | mAM viability / cytotoxic effect [12]: increase in mAM mortality at the two highest tested concentrations (200 and 100 μM)

N#Cc1cc(OCC2CCC2)cc(-c2ccc(C(=O)O)o2)c1 [Compound 1g, 5-(3-Cyano-5-(cyclobutylmethoxy)phenyl)furan-2-carboxylic Acid]
% RA (percentage of residual enzymatic activity) [1]: 30.4 ± 6.3% | remaining activity at 100 µM [1]: 30% | MIC99 [2]: 250 µM (≈ 74.3 µg/mL)

CCCCCOc1cc(C#N)cc(-c2ccc(C(=O)O)o2)c1 [Compound 1i, 5-(3-Cyano-5-(pentyloxy)phenyl)furan-2-carboxylic Acid]
remaining activity at 100 µM [1]: 0.4 ± 0.2% | IC50 [1]: 6.8 ± 0.1 µM | MIC99 [2]: 125 µM (≈ 37.4 µg/mL)

CO[C@H]1/C=C/O[C@@]2(C)Oc3c(C)c(O)c4c(O)c(c(/C=N/N5CCN(C)CC5)c(O)c4c3C2=O)NC(=O)/C(C)=C\C=C\[C@H](C)[C@H](O)[C@@H](C)[C@@H](O)[C@@H](C)[C@H](OC(C)=O)[C@@H]1C [Rifampicin, reference compound]
time of peak effect on Mtb fluorescence ([10]; 1 μg/mL (2x MIC), positive control): 3 day post-treatment

CCCCCCCCOc1cc(C#N)cc(-c2ccc(C(=O)O)o2)c1 [Compound 1l, 5-(3-Cyano-5-(octyloxy)phenyl)furan-2-carboxylic Acid]
% RA (percentage of residual enzymatic activity) [1]: 40.0 ± 4.1% | remaining activity at 100 µM [1]: 40%

C/C=C/C=C/COc1cc(C#N)cc(-c2ccc(C(=O)O)o2)c1 [Compound 1n, 5-(3-Cyano-5-((2E,4E)-hexa-2,4-dien-1-yloxy)phenyl)furan-2-carboxylic Acid]
remaining activity at 100 µM [1]: 10 ± 3.6% | IC50 [1]: 16.6 ± 2.1 µM | antimycobacterial effect (in words) [2]: completely abolished the antimycobacterial effect | MIC99 [2]: > 500 µM

CC=CCOc1cc(C#N)cc(-c2ccc(C(=O)O)o2)c1 [Compound 1m, 5-(3-(But-2-en-1-yloxy)-5-cyanophenyl)furan-2-carboxylic Acid]
remaining activity at 100 µM [1]: 7.5 ± 0.3% | IC50 [1]: 3.1 ± 0.7 µM | MIC99 [2]: 125 µM (≈ 35.4 µg/mL)

N#Cc1cc(OCC2CC2)cc(-c2ccc(C(=O)O)o2)c1 [Compound 1f, 5-(3-Cyano-5-(cyclopropylmethoxy)phenyl)furan-2-carboxylic Acid]
% RA (percentage of residual enzymatic activity) [1]: 20.6 ± 2.4% | remaining activity at 100 µM [1]: 20% | MIC99 [2]: 125 µM (≈ 35.4 µg/mL)

CCCCOc1cc(C#N)cc(-c2ccc(C(=O)O)o2)c1 [Compound 1d, 5-(3-Butoxy-5-cyanophenyl)furan-2-carboxylic Acid]
remaining activity at 100 µM [1]: < 1% | IC50 [1]: 0.9 ± 0.2 µM | MIC99 [2]: 63 µM (≈ 18 µg/mL) | substrate of mycobacterial efflux pumps [9]: not substrates of efflux pumps

CCCCCCOc1cc(C#N)cc(-c2ccc(C(=O)O)o2)c1 [Compound 1k, 5-(3-Cyano-5-(hexyloxy)phenyl)furan-2-carboxylic Acid]
remaining activity at 100 µM [1]: 6 ± 6.1% | IC50 [1]: 9.9 ± 1.3 µM | MIC99 [2]: 63 µM (≈ 19.7 µg/mL) | substrate of mycobacterial efflux pumps [9]: not substrates of efflux pumps

CCOC(=O)c1ccc(-c2cc(C#N)cc(OCC(C)C)c2)o1 [Compound 2ea, Ethyl 5-(3-Cyano-5-isobutoxyphenyl)furan-2-carboxylate]
remaining activity at 100 µM [1]: 71.5 ± 7.6% | MIC99 [2]: 64 µM (≈ 20.1 µg/mL) | average size (hydrodynamic diameter) of drug-containing POs [11]: 44.46 ± 9.58 nm | mAM viability / cytotoxic effect [12]: increase in mAM mortality at the two highest tested concentrations (200 and 100 μM)

CCOc1cc(C#N)cc(-c2ccc(C(=O)O)o2)c1 [Compound 1a, 5-(3-Cyano-5-ethoxyphenyl)furan-2-carboxylic Acid]
remaining activity at 100 µM [1]: 4.9 ± 2.3% | IC50 [1]: 11.8 ± 0.6 µM | MIC99 [2]: > 500 µM
